Patent publication US5686606A, “UCF116 compounds” (Kyowa Hakko Kogyo, Co., Ltd., priority 1994, dated 1997)
Values after ≈ are worked out from the molar mass of the structure shown. Read-outs that look alike come from different tables or passages of the source.

Experiments:
[1] = tested on: Candida albicans ATCC 10231; test: Antibacterial activity (MIC), agar dilution method; assay type: cell-based
Description: (§1) The antibacterial activity was determined by the agar dilution method using a medium (pH 7) which comprises 3 g/l Bacto-tryptone (Difco Laboratories),3 g/l meat extract, 1 g/f yeast extract, 1 g/l glucose and 16 g/l agar.

[2] = tested on: Enterococcus faecium ATCC 10541; test: Antibacterial activity (MIC), agar dilution method; assay type: cell-based
Description: as §1

[3] = tested on: Staphylococcus aureus ATCC 6538P; test: Antibacterial activity (MIC), agar dilution method; assay type: cell-based; conditions: ATCC6538P, pH 7
Description: as §1

[4] = tested on: HR-3Y1 cells; test: Growth inhibition against HR-3Y1 cells; assay type: cell-based; conditions: 72 hours, 37° C., Giemsa staining
Description: An HR-3Y1 cell suspension (3.0×10^4 cells/ml) prepared by suspending HR-3Y1 cells in a medium comprising MEM medium (Nissui Pharmaceutical Co., Ltd.) and 10% fetal calf serum (hereinafter referred to as Medium A) was put into wells of a 96-well microtiter plate in an amount of 0.1 ml per well. After the cells in the plate were cultivated at 37° C. for 20 hours in a CO2 -incubator, a test compound appropriately diluted with Medium A was added to the wells in an amount of 0.1 ml per well. The cells were further cultivated at 37° C. for 72 hours in the CO2 -incubator. After the cultivation supernatant was removed, the residue was washed once with physiological saline and then treated with 0.1 ml of methanol for 10 minutes to fix the cells. The cells were stained with 0.1 ml of Giemsa's staining solution [Giemsa's staining solution, Merck Art 9204 (Merck & Co., Inc.): physiological saline=1:10] for 5 minutes. After the staining solution was removed, the residue was washed once with 0.2 ml of water. Then, the dye was extracted with 0.2 ml of 0.1 N hydrochloric acid and the absorbance was measured at 620 nm with a microplate reader.
The concentration of the test compound at which the growth of the cells is inhibited by 50% (IC50) was calculated by comparing the absorbance of untreated cells with those of the cells treated with the test compound at known concentrations.

[5] = Solubility; assay type: physicochemical
[6] = tested on: BALB 3T3/H-ras cells; test: Growth inhibition against BALB 3T3/H-ras cells; assay type: cell-based; conditions: Mus musculus, 72 hours, 37° C., Giemsa staining
Description: A BALB 3T3/H-ras cell suspension (3.0×10^4 cells/ml) prepared by suspending BALB 3T3/H-ras cells ([…]) in a medium comprising MEM medium (Nissui Pharmaceutical Co., Ltd.) and 10% fetal calf serum (hereinafter referred to as Medium A) was put into wells of a 96-well microtiter plate in an amount of 0.1 ml per well. After the cells in the plate were cultivated at 37° C. for 20 hours in a CO2 -incubator, a test compound appropriately diluted with Medium A was added to the wells in an amount of 0.1 ml per well. The cells were further cultivated at 37° C. for 72 hours in the CO2 -incubator. After the cultivation supernatant was removed, the residue was washed once with physiological saline and then treated with 0.1 ml of methanol for 10 minutes to fix the cells. The cells were stained with 0.1 ml of Giemsa's staining solution [Giemsa's staining solution, Merck Art 9204 (Merck & Co., Inc.): physiological saline=1:10] for 5 minutes. After the staining solution was removed, the residue was washed once with 0.2 ml of water. Then, the dye was extracted with 0.2 ml of 0.1 N hydrochloric acid and the absorbance was measured at 620 nm with a microplate reader. […]

[7] = tested on: isogenic tumor in K-BALB mice; test: Antitumor activity against isogenic tumor system in K-BALB mice; assay type: in vivo; conditions: 10.0 mg/kg, intraperitoneal, 5 consecutive days from 7th day after s.c. transplantation, BALB/c mouse
Description: The antitumor activity against an isogenic tumor system in K-BALB mice was measured according to the method described in Proc. Natl. Acad. Sci., 90, 2281 (1993). That is, an isogenic tumor in K-BALB mice was resected from a donor mouse, and a 2×2×2 mm (8 mm^3) tumor piece was subcutaneously transplanted into a BALB/c mouse at the ventral side using a trocar. After the graft survival was confirmed on the 7th day after the transplantation, a test compound was intraperitoneally administered for 5 consecutive days from the same day. The longer diameter and the shorter diameter of the tumor were measured with slide calipers, and the tumor volume was calculated according to the formula: (longer diameter)×(shorter diameter)^2 /2 [Cancer Chemother. Rep., Part III, 3, 1 (1972)]. The antitumor effect was evaluated in terms of T/C, the ratio of the tumor volume of a test compound-treated group (T) to that of an untreated group (C).

[8] = ATCC10231, Candida albicans ATCC 10231, agar dilution, pH 7, read-out: MIC
[9] = ATCC10541, Enterococcus faecium ATCC 10541, agar dilution, pH 7, read-out: MIC
[10] = Staphylococcus aureus ATCC 6538P, agar dilution, read-out: MIC

## CO[C@H]1/C=C/C=C/C=C/C[C@H](OC(=O)C2(NC(=O)C3CCCCC3)CC2)[C@H](C)[C@@H](O)/C(C)=C\CCC2=CC(=O)C=C(NC(=O)C1)C2=O [UCF116-A3]
[1]; [8]
  MIC: 41.7 µg/mL (≈ 64.3 µM)
[2]; [9]
  MIC: 83.3 µg/mL (≈ 128 µM)
[3]; [10]
  MIC: 41.7 µg/mL (≈ 64.3 µM)
[4]
  IC50: 950 nM
[5]
  Solubility in DMSO, chloroform, acetone and ethyl acetate: Soluble
  Solubility in water and hexane: insoluble

## CO[C@H]1/C=C/C=C/C=C/C[C@H](OC(=O)[C@@H](C)NC(=O)C2=CCCCC2)[C@H](C)[C@@H](O)/C(C)=C\CCc2cc(O)cc(c2O)NC(=O)C1 [UCF116-B]
[1]; [8]
  MIC: 20.8 µg/mL (≈ 32.7 µM)
[2]; [9]
  MIC: 41.7 µg/mL (≈ 65.5 µM)
[3]; [10]
  MIC: 41.7 µg/mL (≈ 65.5 µM)
[6]
  IC50: 390 nM
[4]
  IC50: 350 nM
[7]
  T/C (ratio of tumor volume of treated group to untreated group): 0.25
[5]
  Solubility in DMSO, chloroform, acetone and ethyl acetate: Soluble
  Solubility in water and hexane: insoluble

## C/C=C(\C)C(=O)N[C@H](C)C(=O)O[C@H]1C/C=C/C=C/C=C/[C@H](OC)CC(=O)Nc2cc(O)cc(c2O)CC/C=C(/C)[C@H](O)[C@H]1C [UCF116-D]
[1]; Candida albicans, ATCC10231, pH 7
  MIC: 83.3 µg/mL (≈ 136 µM)
[2]; Enterococcus faecium, ATCC10541, pH 7
  MIC: 83.3 µg/mL (≈ 136 µM)
[3]; Staphylococcus aureus
  MIC: 83.3 µg/mL (≈ 136 µM)
[6]
  IC50: 660 nM
[5]
  Solubility in DMSO, chloroform, acetone and ethyl acetate: Soluble
  Solubility in water and hexane: insoluble
